{"source": "patent US20200360349A1", "about": "“ADMINISTRATION OF MONOBACTAM FOR THE TREATMENT OF URINARY TRACT INFECTION” (Novartis AG, priority 2017, published 2020)", "key": {"[1]": {"system": "Gram-negative bacteria, including strains that show resistance to other monobactams", "details": "cited from earlier work"}, "[2]": {"experiment": "Safety and tolerability of single doses of LYS228", "assay_type": "in vivo, human", "details": "following single doses up to 6000 mg", "text": "and including any ionic species thereof is a compound with antibacterial activity (See PCT Application No. PCT/US2015/022011, which is incorporated herein by reference). […] LYS228 kills bacteria by inhibiting cell wall synthesis through covalent modification of the active site serine of penicillin binding protein 3 (PBP3). Aztreonam is the only monobactam approved for clinical use (Tunkel and Scheld Infect Control Hosp Epidemiol p. 486-94, 1990). MBL-expressing Enterobacteriaceae can inactivate all classes of (3-lactam drugs, except monocyclic (3-lactams like the monobactams. MBLs are frequently co-expressed with SBLs. The prevalence of strains expressing the New Delhi metal-β-lactamase-1 (NDM-1) is as high as 12% in clinical isolates from patients with invasive infections in India (Biedenbach et al Antimicrob. Agents Chemother. p. 826-30, 2015, Rahman et al India. Int. J. Antimicrob. Agents p. 30-7, 2014); infections caused by strains expressing NDM-1 and other MBLs have been detected globally, including in Europe, the United States, China, and Japan (Kazmierczak et al Antimicrob. Agents Chemother. p. 1067-78, 2016). […]"}}}
{"smiles": "Nc1nc(/C(=N/OC2(C(=O)O)CC2)C(=O)N[C@@H]2C(=O)N(S(=O)(=O)O)[C@@H]2CN2CCOC2=O)cs1", "note": "[LYS228, 1-(((Z)-(1-(2-aminothiazol-4-yl)-2-oxo-2-(((3S,4R)-2-oxo-4-((2-oxooxazolidin-3-yl)methyl)-1-sulfoazetidin-3-yl)amino)ethylidene)amino)oxy)cyclopropanecarboxylic acid]", "values": [{"measurement": "activity against Gram-negative bacteria", "setting": "[1]", "result": "strong activity"}, {"measurement": "safety and tolerability", "setting": "[2]", "result": "safe and well-tolerated"}]}
